≈ marks a conversion by molar mass, not a printed value. Where two headings read alike, the source gives them in different places.
Columns and labels:
FAAH [1] = biological target: T1, FAAH (Rattus norvegicus, UniProt P97612); assay: FAAH inhibition, hydrolysis of 0.5 µM [3H]AEA in rat brain homogenates; assay type: biochemical; conditions: for Maximum inhibition: maximal attainable inhibition according to preferred curve fit, mean ± standard error; for effect of pre-incubation on inhibition curve (time dependence): 60 vs. 0 min of pre-incubation
T1 construct: using rat brain homogenates as enzyme source; from tissue; host or cells: rat brain homogenate
T1 sequence (P97612 1-579): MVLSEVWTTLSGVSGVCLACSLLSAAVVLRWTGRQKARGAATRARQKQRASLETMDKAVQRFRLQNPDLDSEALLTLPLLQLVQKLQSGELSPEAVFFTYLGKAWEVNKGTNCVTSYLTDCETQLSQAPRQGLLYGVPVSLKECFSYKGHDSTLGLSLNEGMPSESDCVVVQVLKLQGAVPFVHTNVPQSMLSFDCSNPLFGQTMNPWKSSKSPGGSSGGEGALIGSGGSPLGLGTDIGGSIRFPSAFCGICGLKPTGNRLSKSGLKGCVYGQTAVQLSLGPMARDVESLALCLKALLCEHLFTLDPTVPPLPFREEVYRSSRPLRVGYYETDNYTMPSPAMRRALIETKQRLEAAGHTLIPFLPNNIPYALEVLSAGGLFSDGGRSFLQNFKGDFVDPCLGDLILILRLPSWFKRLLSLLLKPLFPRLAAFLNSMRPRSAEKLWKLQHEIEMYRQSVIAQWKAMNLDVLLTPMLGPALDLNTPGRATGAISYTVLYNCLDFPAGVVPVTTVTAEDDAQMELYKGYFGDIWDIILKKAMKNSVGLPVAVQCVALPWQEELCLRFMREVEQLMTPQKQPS

[2] = thermodynamic aqueous solubility in phosphate-buffered saline; assay type: physicochemical; conditions: aqueous buffer, thermodynamic from solid; phosphate-buffered saline 10 mM, pH 7.48, 37 °C
FAAH [3] = system: FAAH; parameters: method as in PMID 12461523; conditions: previously reported data; cited from earlier work
FAAH [4] = system: FAAH; parameters: method as in PMID 21502526; conditions: reported; cited from earlier work
[5] = 60-min pre-incubation with enzyme

Compound | Maximum inhibition (FAAH [1]; no pre-incubation) [%] | other results
O=C(COc1ccc(-c2ccccc2)cc1)Nc1ccccc1-c1nc2ncccc2o1 [4a, 2-([1,1′-Biphenyl]-4-yloxy)-N-(2-(oxazolo[4,5-b]pyridin-2-yl)phenyl)acetamide] | 3 ± 5 | 
O=C(COc1ccc(C2CCCCC2)cc1)Nc1ccccc1-c1nc2ncccc2o1 [4b, 2-(4-Cyclohexylphenoxy)-N-(2-(oxazolo[4,5-b]pyridin-2-yl)phenyl)acetamide] | −1 ± 3 | 
CCC/C=C/COCC(=O)Nc1ccccc1-c1nc2ncccc2o1 [4c, (E)-2-(hex-2-en-1-yloxy)-N-(2-(oxazolo[4,5-b]pyridin-2-yl)phenyl)acetamide] | 7 ± 3 | 
O=C(COc1ccccc1)Nc1cccc(-c2nc3ncccc3o2)c1 [4d, N-(3-(oxazolo[4,5-b]pyridin-2-yl)phenyl)-2-phenoxyacetamide] | 100 | 
CC(C)c1ccc(OCC(=O)Nc2cccc(-c3nc4ncccc4o3)c2)cc1 [4e, 2-(4-Isopropylphenoxy)-N-(3-(oxazolo[4,5-b]pyridin-2-yl)phenyl)acetamide] | 100 | 
O=C(COc1ccc(-c2ccccc2)cc1)Nc1cccc(-c2nc3ncccc3o2)c1 [4f, 2-([1,1′-Biphenyl]-4-yloxy)-N-(3-(oxazolo[4,5-b]pyridin-2-yl)phenyl)acetamide] |  | solubility thermodynamic [2]: 3 to 20 µM (≈ 1.26 to 8.43 µg/mL)
O=C(COc1ccc(C2CCCCC2)cc1)Nc1cccc(-c2nc3ncccc3o2)c1 [4g, 2-(4-Cyclohexylphenoxy)-N-(3-(oxazolo[4,5-b]pyridin-2-yl)phenyl)acetamide] | 100 | 
CCC/C=C/COCC(=O)Nc1cccc(-c2nc3ncccc3o2)c1 [4h, (E)-2-(hex-2-en-1-yloxy)-N-(3-(oxazolo[4,5-b]pyridin-2-yl)phenyl)acetamide] | 100 | 
O=C(COc1ccc(-c2ccccc2)cc1)Nc1ccc(-c2nc3ncccc3o2)cc1 [4i, 2-([1,1′-Biphenyl]-4-yloxy)-N-(4-(oxazolo[4,5-b]pyridin-2-yl)phenyl)acetamide] | 75 ± 4 | solubility thermodynamic [2]: 18 µM (≈ 7.59 µg/mL); IC50 (FAAH [1]; [5]): 0.28 µM; maximum observed inhibition (FAAH [1]; [5]): 39 ± 2%
O=C(COc1ccc(C2CCCCC2)cc1)Nc1ccc(-c2nc3ncccc3o2)cc1 [4j, 2-(4-Cyclohexylphenoxy)-N-(4-(oxazolo[4,5-b]pyridin-2-yl)phenyl)acetamide] | 19 ± 10 | 
CCC/C=C/COCC(=O)Nc1ccc(-c2nc3ncccc3o2)cc1 [4k, (E)-2-(hex-2-en-1-yloxy)-N-(4-(oxazolo[4,5-b]pyridin-2-yl)phenyl)acetamide] | 46 ± 9 | 
O=C(COc1ccc(-c2ccccc2)cc1)Nc1ccccc1-c1nc2ncccc2[nH]1 [4l, N-(2-(1H-imidazo[4,5-b]pyridin-2-yl)phenyl)-2-([1,1'-biphenyl]-4-yloxy)acetamide] | 70 ± 2 | effect of pre-incubation on inhibition curve (time dependence) (FAAH [1]): reduced maximal inhibition
O=C(COc1ccc(C2CCCCC2)cc1)Nc1ccccc1-c1nc2ncccc2[nH]1 [4m, N-(2-(1H-imidazo[4,5-b]pyridin-2-yl)phenyl)-2-(4-cyclohexylphenoxy)acetamide] | 82 ± 3 | solubility thermodynamic [2]: 3 to 20 µM (≈ 1.28 to 8.53 µg/mL); effect of pre-incubation on inhibition curve (time dependence) (FAAH [1]): reduced maximal inhibition
CCC/C=C/COCC(=O)Nc1ccccc1-c1nc2ncccc2[nH]1 [4n, (E)-N-(2–(1H-imidazo[4,5-b]pyridin-2-yl)phenyl)-2-(hex-2-en-1-yloxy)acetamide] | 100 | 
O=C(COc1ccc(-c2ccccc2)cc1)Nc1cccc(-c2nc3ncccc3[nH]2)c1 [4o, N-(3-(1H-imidazo[4,5-b]pyridin-2-yl)phenyl)-2-([1,1'-biphenyl]-4-yloxy)acetamide] | 71 ± 9 | 
O=C(COc1ccc(C2CCCCC2)cc1)Nc1cccc(-c2nc3ncccc3[nH]2)c1 [4p, N-(3-(1H-imidazo[4,5-b]pyridin-2-yl)phenyl)-2-(4-cyclohexylphenoxy)acetamide] | 100 | 
CCC/C=C/COCC(=O)Nc1cccc(-c2nc3ncccc3[nH]2)c1 [4q, (E)-N-(3-(1H-imidazo[4,5-b]pyridin-2-yl)phenyl)-2-(hex-2-en-1-yloxy)acetamide] | 100 | 
O=C(COc1ccc(-c2ccccc2)cc1)Nc1ccc(-c2nc3ncccc3[nH]2)cc1 [4r, N-(4-(1H-imidazo[4,5-b]pyridin-2-yl)phenyl)-2-([1,1'-biphenyl]-4-yloxy)acetamide] | 80 ± 2 | solubility thermodynamic [2]: 20 µM (≈ 8.41 µg/mL); effect of pre-incubation on inhibition curve (time dependence) (FAAH [1]): reduced maximal inhibition
O=C(COc1ccc(C2CCCCC2)cc1)Nc1ccc(-c2nc3ncccc3[nH]2)cc1 [4s, N-(4-(1H-imidazo[4,5-b]pyridin-2-yl)phenyl)-2-(4-cyclohexylphenoxy)acetamide] | 62 ± 4 | solubility thermodynamic [2]: 3 µM (≈ 1.28 µg/mL); effect of pre-incubation on inhibition curve (time dependence) (FAAH [1]): essentially identical inhibition curves
CCC/C=C/COCC(=O)Nc1ccc(-c2nc3ncccc3[nH]2)cc1 [4t, (E)-N-(4-(1H-imidazo[4,5-b]pyridin-2-yl)phenyl)-2-(hex-2-en-1-yloxy)acetamide] | 100 | IC50 (FAAH [1]; [5]): 43 µM; effect of pre-incubation on inhibition curve (time dependence) (FAAH [1]): A small degree of time-dependent inhibition; IC50 (FAAH [1]; rat brain homogenates, 0.5 µM [3H]AEA, no pre-incubation, pooled from three independent experiments, 5–7 concentrations): 64 µM
NC(=O)c1cccc(-c2cccc(OC(=O)NC3CCCCC3)c2)c1 [URB597] |  | IC50 (FAAH [3]): 0.0046 ± 0.0016 µM
CCn1c(=O)n([C@H]2CCCN(c3nccc(-c4cc5ccccc5o4)n3)C2)c2ccccc21 [crystal ligand, 1-{(3S)-1-[4–(1-benzofuran-2-yl)pyrimidin-2-yl]piperidin-3-yl}-3-ethyl-1,3-dihydro-2H-benzimidazol-2-one] |  | IC50 (FAAH [4]): 0.1 µM

— article PMC6009913, “N-aryl 2-aryloxyacetamides as a new class of fatty acid amide hydrolase (FAAH) inhibitors” (Journal of Enzyme Inhibition and Medicinal Chemistry, 2017)
